The values that follow come from ChEMBL document CHEMBL4043249, “Discovery of potent antiviral (HSV-1) quinazolinones and initial structure-activity relationship studies” (Bioorg Med Chem Lett, 2017).

SMILES strings stand for the structures. Active and inactive are the calls of the source. The rule behind the calls is not given here.

The subject of data set [1] is Human alphaherpesvirus 1. In words: Anti-viral activity against Herpes simplex virus-1 harboring EGFP infected in iPSC-derived neurons assessed as reduction in ICP0 expression treated 2 hrs post infection measured after 72 hrs by Alexa fluor 488 staining based flow cytometric analysis. In kind it is functional. In general terms: Flow cytometry measures light scatter and fluorescence of single cells or particles in a stream.

The subject of data set [2] is Human alphaherpesvirus 1. In words: Anti-viral activity against Herpes simplex virus-1 harboring EGFP infected in iPSC-derived neurons assessed as early apoptotic cells at 10 mM treated 2 hrs post infection measured after 72 hrs by Alexa fluor 488 staining based flow cytometric analysis (reference value: 13.2%). Format: functional.
The next data set has as its system Vero. The data set can be described thus: Cytotoxicity against African green monkey Vero cells assessed as effect on cell viability at 10 to 1000000 nM. In kind it is cell-based. The conditions noted are these: chlorocebus sabaeus, 1000 µM.
The next data set concerns Neuron. In words: Cytotoxicity against neurons (unknown origin) assessed as effect on cell viability at 10 to 1000000 nM. In kind it is cell-based. The conditions noted are these: 1000 µM.
Data set [3] relates to Human alphaherpesvirus 1. In words: Anti-viral activity against Herpes simplex virus-1 harboring EGFP infected in iPSC-derived neurons assessed as late apoptotic cells at 50 mM treated 2 hrs post infection measured after 72 hrs by Alexa fluor 488 staining based flow cytometric analysis (reference value: 65.7%). Format: functional.
For data set [4], the system named is Human alphaherpesvirus 1. In words: Anti-viral activity against Herpes simplex virus-1 harboring EGFP infected in iPSC-derived neurons assessed as late apoptotic cells at 10 mM treated 2 hrs post infection measured after 72 hrs by Alexa fluor 488 staining based flow cytometric analysis (reference value: 65.7%). Format: functional.
The test system of data set [5] is Human alphaherpesvirus 1. The data set can be described thus: Anti-viral activity against Herpes simplex virus-1 harboring EGFP infected in iPSC-derived neurons assessed as viable cells at 50 mM treated 2 hrs post infection measured after 72 hrs by Alexa fluor 488 staining based flow cytometric analysis (reference value: 17.8%). In kind it is functional.
Data set [6] relates to Human alphaherpesvirus 1. The data set can be described thus: Anti-viral activity against Herpes simplex virus-1 harboring EGFP infected in iPSC-derived neurons assessed as necrotic cells at 50 mM treated 2 hrs post infection measured after 72 hrs by Alexa fluor 488 staining based flow cytometric analysis (reference value: 3.33%). Format: functional.
In data set [7] the test system is Human alphaherpesvirus 1. The data set can be described thus: Anti-viral activity against Herpes simplex virus-1 harboring EGFP infected in iPSC-derived neurons assessed as early apoptotic cells at 50 mM treated 2 hrs post infection measured after 72 hrs by Alexa fluor 488 staining based flow cytometric analysis (reference value: 13.2%). In kind it is functional.

In data set [8] the test system is Human alphaherpesvirus 1. The data set can be described thus: Anti-viral activity against Herpes simplex virus-1 harboring EGFP infected in iPSC-derived neurons assessed as viable cells at 10 mM treated 2 hrs post infection measured after 72 hrs by Alexa fluor 488 staining based flow cytometric analysis (reference value: 17.8%). In kind it is functional.
Data set [9] concerns Human alphaherpesvirus 1. The data set can be described thus: Anti-viral activity against Herpes simplex virus-1 harboring EGFP infected in iPSC-derived neurons assessed as reduction in ICP0 expression at 10 to 50 uM treated 2 hrs post infection measured after 72 hrs by Alexa fluor 488 staining based flow cytometric analysis. Format: functional.
In a further data set the test system is NSC. The data set can be described thus: Cytotoxicity against NSC (unknown origin) assessed as effect on cell viability at 10 to 1000000 nM. In kind it is cell-based. As to conditions: 1000 µM.
Data set [10] concerns Human alphaherpesvirus 1. The data set can be described thus: Anti-viral activity against Herpes simplex virus-1 harboring EGFP infected in iPSC-derived neurons assessed as necrotic cells at 10 mM treated 2 hrs post infection measured after 72 hrs by Alexa fluor 488 staining based flow cytometric analysis (reference value: 3.33%). In kind it is functional.
Data set [11] in a line: Cytotoxicity against human induced pluripotent stem cell-derived neurons assessed as morphological changes after 48 to 72 hrs by live/dead fixable aqua dead cell staining based assay. As to conditions: induced pluripotent stem cell-derived neuron.
Data set [12] can be described thus: Cytotoxicity against human induced pluripotent stem cell-derived neurons assessed as effect on cell viability after 24 hrs by live/dead fixable aqua dead cell staining based assay. The conditions noted are these: induced pluripotent stem cell-derived neuron.
Data set [13] concerns Human alphaherpesvirus 1. The data set can be described thus: Anti-viral activity against Herpes simplex virus-1 harboring EGFP infected in iPSC-derived neurons assessed as reduction in ICP0 expression at 50 uM treated 2 hrs post infection measured after 72 hrs by Alexa fluor 488 staining based flow cytometric analysis. In kind it is functional.
Data set [14] is described as follows: Induction of heterochromatinization in Induced pluripotent stem cell-derived neuron (unknown origin) infected with HSV-1 assessed as increase in H3K27 trimethylation at ICP4 gene by chromatin immunoprecipitation based RT-PCR analysis.
The test system of data set [15] is Human alphaherpesvirus 1. The data set can be described thus: Anti-viral activity against Herpes simplex virus-1 harboring EGFP infected in iPSC-derived neurons assessed as reduction in ICP0 expression at 10 uM treated 2 hrs post infection measured after 72 hrs by Alexa fluor 488 staining based flow cytometric analysis. In kind it is functional.

On to `O=c1c2ccccc2nc(-c2ccc(Br)cc2)n1-c1ccc(Br)cc1`, for which, in the data set with Human alphaherpesvirus 1 [1], the outcome was Active.

For the compound `COc1ccc(-c2nc3ccccc3c(=O)n2-c2ccc(Br)cc2)cc1`, the result with Human alphaherpesvirus 1 [1] was Active.

`COc1ccc(-n2c(-c3ccc(OCc4cccc(Br)c4)cc3)nc3ccccc3c2=O)cc1`: the Activity with Human alphaherpesvirus 1 [2] is 3.24%; in the data set on Vero, “Toxic”; in the data set on Neuron it was “Toxic”; in the data set on Human alphaherpesvirus 1 [3] it was 9.96%; in the data set with Human alphaherpesvirus 1 [4] it was 6.1%; in the data set on Human alphaherpesvirus 1 [5], 82%. Besides, the Activity is 4.31% in the data set on Human alphaherpesvirus 1 [6]; 3.76% in the data set with Human alphaherpesvirus 1 [7]; 90.1% in the data set on Human alphaherpesvirus 1 [8]; “Toxic” with NSC; 0.59% with Human alphaherpesvirus 1 [10]. Besides, the outcome in the data set with Human alphaherpesvirus 1 [9] was Active.

On to `O=c1c2ccccc2nc(-c2ccc(OCc3ccccc3)cc2)n1-c1ccc(Br)cc1`, for which the Activity result is listed as “Toxic” in data set [11], “Toxic” in data set [12] and “Non-Toxic” in data set [14]. In addition, the result in the data set with Human alphaherpesvirus 1 [1], in the data set on Human alphaherpesvirus 1 [13] and in the data set on Human alphaherpesvirus 1 [15] was Active.

For `COc1ccc(-n2c(-c3ccc(OCc4ccc(Br)cc4)cc3)nc3ccccc3c2=O)cc1`, the Activity in the data set on Human alphaherpesvirus 1 [2] is 3.18%; in the data set on Vero it was “Toxic”; in the data set on Neuron, “Toxic”; in the data set on Human alphaherpesvirus 1 [3], 5.03%; in the data set with Human alphaherpesvirus 1 [4], 4.64%; in the data set with Human alphaherpesvirus 1 [5] it was 88.9%. Moreover, the Activity in the data set on Human alphaherpesvirus 1 [6] is 2.91%; in the data set on Human alphaherpesvirus 1 [7] it was 3.36%; with Human alphaherpesvirus 1 [8], 91.6%; with NSC, “Toxic”; with Human alphaherpesvirus 1 [10], 0.6%. Also, the result with Human alphaherpesvirus 1 [9] was Active.

Turning to `O=c1c2ccccc2nc(-c2ccc(OCc3ccc(Br)cc3)cc2)n1-c1ccc(Br)cc1`, the outcome with Human alphaherpesvirus 1 [9] was Active.

As to `COc1ccc(-n2c(-c3ccc(OCc4ccccc4)cc3)nc3ccccc3c2=O)cc1`, the Activity result in data set [11] and in [12] was “Toxic” throughout. Further, the result in the data set with Human alphaherpesvirus 1 [1] and with Human alphaherpesvirus 1 [13] was Active.

`COc1ccc(-n2c(-c3ccc(Oc4ccc(OC(F)(F)F)cc4)cc3)nc3ccccc3c2=O)cc1`: the result with Human alphaherpesvirus 1 [9] was inactive.

With `O=c1c2ccccc2nc(-c2ccc(OCc3cccc(Br)c3)cc2)n1-c1ccc(Br)cc1`, the result in the data set with Human alphaherpesvirus 1 [9] was Active.

For the compound `COc1ccc(-n2c(-c3ccc(Oc4ccc(Cl)cc4)cc3)nc3ccccc3c2=O)cc1`, the outcome in the data set on Human alphaherpesvirus 1 [9] was inactive.

In the case of `COc1ccc(-n2c(-c3ccc(Nc4ccccc4)cc3)nc3ccccc3c2=O)cc1`, the outcome with Human alphaherpesvirus 1 [9] was inactive.

Take `O=c1[nH]c(-c2ccc(OCc3ccccc3)cc2)nc2ccccc12`: in the data set with Human alphaherpesvirus 1 [1], the result was inactive.

With `Nc1nc2c(ncn2COCCO)c(=O)[nH]1` [ACYCLOVIR], the Activity was found to be 7.92% in the data set on Human alphaherpesvirus 1 [2]; 0.44% in the data set with Human alphaherpesvirus 1 [3]; 1.36% with Human alphaherpesvirus 1 [4]; 92.6% with Human alphaherpesvirus 1 [5]; 0.76% in the data set with Human alphaherpesvirus 1 [6]; 6.22% in the data set with Human alphaherpesvirus 1 [7]. The values for the Activity in the data set with Human alphaherpesvirus 1 [8] and with Human alphaherpesvirus 1 [10] were 89.6% and 1.13%, respectively.

As to `COc1ccc(Oc2ccc(-c3nc4ccccc4c(=O)n3-c3ccc(OC)cc3)cc2)cc1`, the result in the data set on Human alphaherpesvirus 1 [9] was inactive.

For the compound `COc1ccc(-n2c(-c3ccc(Oc4ccccc4)cc3)nc3ccccc3c2=O)cc1`, the outcome with Human alphaherpesvirus 1 [9] was inactive.

For `CCCCCCn1c(-c2ccc(OCc3ccccc3)cc2)nc2ccccc2c1=O`, the result in the data set on Human alphaherpesvirus 1 [1] was inactive.
